Literature values, collected in patent US20060211763A1, “Treatment with Statin and Omega-3 Fatty Acids and a Combination Product Thereof” (priority 2005, published 2006).
One block for each compound: values may come before it.

What was measured:
[1] = test system: patients with hyperlipidemia; conditions: 900 or 1800 mg/day EPA ethyl ester for 3 months added to 5-20 mg/day pravastatin or 5 mg/day simvastatin; vs baseline monotherapy
[2] = test system: patients with hyperlipemia; conditions: 10 mg/day atorvastatin 5 weeks (vs baseline)
[3] = in vivo
[4] = test system: patients with hypercholesterolemia; conditions: 40 mg/day lovastatin 6 weeks
[5] = then plus 2 g/day Omacor 5 weeks (vs atorvastatin alone; insignificant)
[6] = then combination with 6 g/day Omacor 6 weeks

Rate of absorption [3]: about 30%
Degradation in alkaline environment: converted to the acid form
Structure (SMILES): CC[C@H](C)C(=O)O[C@H]1C[C@@H](C)C=C2C=C[C@H](C)[C@H](CC[C@@H]3C[C@@H](O)CC(=O)O3)[C@H]21 [lovastatin]
HDL-C levels [4]: significant increases
LDL-C levels [4, 6]: significant decreases
Triglyceride levels [4, 6]: significant decreases

Effect of food on absorption [3]: best absorbed without food
Structure (SMILES): CC[C@H](C)C(=O)O[C@H]1C[C@H](O)C=C2C=C[C@H](C)[C@H](CC[C@@H](O)C[C@@H](O)CC(=O)O)[C@H]21 [pravastatin]

Continued, compound first:

Structure (SMILES): CC/C=C\C/C=C\C/C=C\C/C=C\C/C=C\CCCC(=O)OCC [EPA ethyl ester]
HDL-C levels [1]: significantly increased
Triglyceride levels [1]: significantly reduced

Structure (SMILES): CC(C)c1c(C(=O)Nc2ccccc2)c(-c2ccccc2)c(-c2ccc(F)cc2)n1CC[C@@H](O)C[C@@H](O)CC(=O)O [atorvastatin]
HDL-C levels ([2]; then plus 2 g/day Omacor 5 weeks (vs atorvastatin alone)): significantly increased
LDL-C levels [2, 5]: significantly decreased
Triglyceride levels [2, 5]: significantly decreased

Structure (SMILES): CC(C)n1c(/C=C/C(O)CC(O)CC(=O)O)c(-c2ccc(F)cc2)c2ccccc21 (stereo not drawn) [fluvastatin]
Bioavailability [3]: approximately 24%
